Activity calls are given as the source filed them. The calls are words filed in the database; no cut-off is given here.
Experiments:
Caco-2 [1] = test: Cell cycle arrest in human Caco2 cells assessed as mitotic index at 10 uM measured after 48 hrs by Hoechst staining based fluorescence assay (reference value: 3.6); type: functional
PC-3 [2] = test: Cell cycle arrest in human PC3 cells harboring p53 mutant assessed as accumulation at S phase at 25 uM measured after 48 hrs by Hoechst/BrdU staining based fluorescence assay (reference value: 40.8%); type: functional
MDA-MB-231 [3] = test: Induction of apoptosis in human MDA-MB-231 cells harboring p53 mutant assessed as increase in cleaved caspase3 at 2 times IC50 after 24 hrs by Hoechst staining based assay; type: functional, cell-based
MDA-MB-231 [4] = test: Cell cycle arrest in human MDA-MB-231 cells harboring p53 mutant assessed as mitotic index at 10 uM measured after 48 hrs by Hoechst staining based fluorescence assay (reference value: 2.1); type: functional
Caco-2 [5] = test: Cytotoxicity against human Caco2 cells assessed as cell survival at 50 uM after 48 hrs by Hoechst 33342 staining based assay relative to control; type: functional; conditions: Caco-2, 48 h, read-out: Survival
HaCaT [6] = test: Cell cycle arrest in human HaCaT cells harboring […] p53 assessed as accumulation at S phase at 10 uM measured after 48 hrs by Hoechst/BrdU staining based fluorescence assay (reference value: 52.3%); type: functional
[7] = Selectivity index, ratio of IC50 for human fibroblasts to IC50 for human HaCaT cells
NCI-H727 [8] = test: Cell cycle arrest in human NCI-H727 cells assessed as accumulation at G1/S phase by Hoechst staining based fluorescence assay; type: functional
MCF7 = test: Induction of apoptosis in human MCF7 cells harboring wild-type p53 assessed as increase in late apoptosis at 2 times IC50 after 24 hrs by YoPro/propidium iodide/Hoechst staining based assay; type: functional, cell-based
NCI-H727 [9] = test: Cell cycle arrest in human NCI-H727 cells harboring p53 mutant assessed as mitotic index at 10 uM measured after 48 hrs by Hoechst staining based fluorescence assay (reference value: 1.1); type: functional
HCT-116 [10] = test: Cytotoxicity against human HCT116 cells assessed as cell viability after 48 hrs by Hoechst 33342 staining based assay; type: functional; conditions: HCT-116, 48 h
MDA-MB-231 [11] = test: Cytotoxicity against human MDA-MB-231 cells assessed as cell survival at 50 uM after 48 hrs by Hoechst 33342 staining based assay relative to control; type: functional; conditions: MDA-MB-231, 48 h, read-out: Survival
HaCaT [12] = test: Cytotoxicity against human HaCaT cells assessed as cell viability after 48 hrs by Hoechst 33342 staining based assay; type: functional
HaCaT [13] = test: Cell cycle arrest in human HaCaT cells harboring […] p53 assessed as accumulation at S phase at 25 uM measured after 48 hrs by Hoechst/BrdU staining based fluorescence assay (reference value: 52.3%); type: functional
[14] = Selectivity index, ratio of IC50 for human fibroblasts to IC50 for human PC3 cells
[15] = Selectivity index, ratio of IC50 for human fibroblasts to IC50 for human MDA-MB-231 cells
PC-3 [16] = test: Induction of apoptosis in human PC3 cells harboring p53 mutant assessed as upregulation of cyclinB1 after 48 hrs by Hoechst staining based assay; type: functional, cell-based
PC-3 [17] = test: Induction of apoptosis in human PC3 cells harboring p53 mutant assessed as increase in cleaved caspase3 at 2 times IC50 after 48 hrs by Hoechst staining based assay; type: functional, cell-based
[18] = Selectivity index, ratio of IC50 for human fibroblasts to IC50 for human RL cells
NCI-H727 [19] = test: Cytotoxicity against human NCI-H727 cells assessed as cell viability after 48 hrs by Hoechst 33342 staining based assay; type: functional; conditions: NCI-H727, 48 h
PC-3 [20] = test: Cytotoxicity against human PC3 cells assessed as cell viability after 48 hrs by Hoechst 33342 staining based assay; type: functional; conditions: PC-3, 48 h
Huh-7 [21] = test: Cell cycle arrest in human HuH7 cells assessed as mitotic index at 10 uM measured after 48 hrs by Hoechst staining based fluorescence assay (reference value: 2.2); type: functional
Huh-7 [22] = test: Cytotoxicity against human HuH7 cells assessed as cell survival at 50 uM after 48 hrs by Hoechst 33342 staining based assay relative to control; type: functional; conditions: Huh-7, 48 h, read-out: Survival
[23] = Selectivity index, ratio of IC50 for human fibroblasts to IC50 for human Caco2 cells
PC-3 [24] = test: Cell cycle arrest in human PC3 cells harboring p53 mutant assessed as mitotic index at 25 uM measured after 48 hrs by Hoechst staining based fluorescence assay (reference value: 2.5); type: functional
MDA-MB-231 [25] = test: Induction of apoptosis in human MDA-MB-231 cells harboring p53 mutant assessed as increase in late apoptosis at 2 times IC50 after 24 hrs by YoPro/propidium iodide/Hoechst staining based assay; type: functional, cell-based
Huh-7 [26] = test: Cytotoxicity against human HuH7 cells assessed as cell viability after 48 hrs by Hoechst 33342 staining based assay; type: functional; conditions: Huh-7, 48 h
Huh-7 [27] = test: Cell cycle arrest in human HuH7 cells assessed as mitotic index at 25 uM measured after 48 hrs by Hoechst staining based fluorescence assay (reference value: 2.2); type: functional
Huh-7 [28] = test: Cell cycle arrest in human HuH7 cells assessed as accumulation at S phase at 10 uM measured after 48 hrs by Hoechst/BrdU staining based fluorescence assay (reference value: 44%); type: functional
PC-3 [29] = test: Cytotoxicity against human PC3 cells assessed as cell survival at 50 uM after 48 hrs by Hoechst 33342 staining based assay relative to control; type: functional; conditions: PC-3, 48 h, read-out: Survival
HCT-116 [30] = test: Cell cycle arrest in human HCT116 cells assessed as accumulation at G1/S phase by Hoechst staining based fluorescence assay; type: functional
Caco-2 [31] = test: Cell cycle arrest in human Caco2 cells assessed as accumulation at M phase by Hoechst staining based fluorescence assay; type: functional
[32] = Selectivity index, ratio of IC50 for human fibroblasts to IC50 for human NCI-H727 cells
Caco-2 [33] = test: Cell cycle arrest in human Caco2 cells assessed as accumulation at S phase at 25 uM measured after 48 hrs by Hoechst/BrdU staining based fluorescence assay (reference value: […]); type: functional
MDA-MB-231 [34] = test: Induction of apoptosis in human MDA-MB-231 cells harboring p53 mutant assessed as upregulation of cyclinB1 after 18 hrs by Hoechst staining based assay; type: functional, cell-based
HCT-116 [35] = test: Cytotoxicity against human HCT116 cells assessed as cell survival at 50 uM after 48 hrs by Hoechst 33342 staining based assay relative to control; type: functional; conditions: HCT-116, 48 h, read-out: Survival
Fibroblast = test: Cytotoxicity against human fibroblasts assessed as cell viability after 48 hrs by Hoechst 33342 staining based assay
PC-3 [36] = test: Cell cycle arrest in human PC3 cells harboring p53 mutant assessed as mitotic index at 10 uM measured after 48 hrs by Hoechst staining based fluorescence assay (reference value: 2.5); type: functional
[37] = Selectivity index, ratio of IC50 for human fibroblasts to IC50 for human HuH7 cells
HCT-116 [38] = test: Induction of apoptosis in human HCT116 cells harboring wild-type p53 assessed as upregulation of cyclinB1 measured after 48 hrs by Hoechst staining based assay; type: functional, cell-based
Caco-2 [39] = test: Cytotoxicity against human Caco2 cells assessed as cell viability after 48 hrs by Hoechst 33342 staining based assay; type: functional; conditions: Caco-2, 48 h

COc1cc(O)c(C(=O)/C=C/c2ccccc2)c(OC)c1 [FLAVOKAWAIN B]
Activity_index (Caco-2 [1]): 9.7
Activity (PC-3 [2]): 20%
Activity (MDA-MB-231 [3]): Active
Activity_index (MDA-MB-231 [4]): 5.2
viability at 50 µM (Caco-2 [5]): 1%
Activity (HaCaT [6]): 50%
Ratio IC50 [7]: 1.9
Activity (NCI-H727 [8]): Active
Activity (MCF7): Active
Activity_index (NCI-H727 [9]): 0.8
IC50 (HCT-116 [10]): 7.5 µM
viability at 50 µM (MDA-MB-231 [11]): 19%
IC50 (HaCaT [12]): 13.6 µM
Activity (HaCaT [13]): 21%
Ratio IC50 [14]: 2.9
Ratio IC50 [15]: 1.6
Activity (PC-3 [16]): Active
Activity (PC-3 [17]): Active
Ratio IC50 [18]: 3.2
IC50 (NCI-H727 [19]): 11.3 µM
IC50 (PC-3 [20]): 9.1 µM
Activity_index (Huh-7 [21]): 2.2
viability at 50 µM (Huh-7 [22]): 10%
Ratio IC50 [23]: 2.7
Activity_index (PC-3 [24]): 2
Activity (MDA-MB-231 [25]): Active
IC50 (Huh-7 [26]): 15.9 µM
Activity_index (Huh-7 [27]): 1.7
Activity (Huh-7 [28]): 55%
viability at 50 µM (PC-3 [29]): 27%
Activity (HCT-116 [30]): Active
Activity (Caco-2 [31]): Active
Ratio IC50 [32]: 2.3
Activity (Caco-2 [33]): 40%
Activity (MDA-MB-231 [34]): Active
viability at 50 µM (HCT-116 [35]): 0%
IC50 (Fibroblast): > 20 µM
Activity_index (PC-3 [36]): 4.2
Ratio IC50 [37]: 1.7
Activity (HCT-116 [38]): Active
IC50 (Caco-2 [39]): 9.9 µM

COc1cc(OC)c(C(=O)/C=C/c2ccccc2)c(OC)c1
Activity_index (Caco-2 [1]): 38.7
Activity (PC-3 [2]): 1.7%
Activity (MDA-MB-231 [3]): Active
Activity_index (MDA-MB-231 [4]): 21
viability at 50 µM (Caco-2 [5]): 5%
Activity (HaCaT [6]): 18%
Ratio IC50 [7]: >6.9
Activity (NCI-H727 [8]): Active
Activity (MCF7): Active
Activity_index (NCI-H727 [9]): 1.3
IC50 (HCT-116 [10]): 6.9 µM
viability at 50 µM (MDA-MB-231 [11]): 13%
IC50 (HaCaT [12]): 7.2 µM
Activity (HaCaT [13]): 0.1%
Ratio IC50 [14]: >9.8
Ratio IC50 [15]: >3.9
Activity (PC-3 [16]): Active
Activity (PC-3 [17]): Active
Ratio IC50 [18]: >7.2
IC50 (NCI-H727 [19]): 11.4 µM
IC50 (PC-3 [20]): 5.1 µM
Activity_index (Huh-7 [21]): 8.5
viability at 50 µM (Huh-7 [22]): 6%
Ratio IC50 [23]: >8.6
Activity_index (PC-3 [24]): 1.2
Activity (MDA-MB-231 [25]): Active
IC50 (Huh-7 [26]): 15.5 µM
Activity_index (Huh-7 [27]): 0.6
Activity (Huh-7 [28]): 45%
viability at 50 µM (PC-3 [29]): 29%
Activity (HCT-116 [30]): Active
Activity (Caco-2 [31]): Active
Ratio IC50 [32]: >4.4
Activity (Caco-2 [33]): 24%
Activity (MDA-MB-231 [34]): Active
viability at 50 µM (HCT-116 [35]): 1%
IC50 (Fibroblast): > 20 µM
Activity_index (PC-3 [36]): 18
Ratio IC50 [37]: >3.2
Activity (HCT-116 [38]): Active
IC50 (Caco-2 [39]): 5.8 µM

COc1cc(OC)c(C(=O)/C=C/c2ccc(F)cc2)c(OC)c1
Activity_index (Caco-2 [1]): 32
Activity (PC-3 [2]): 0.4%
Activity (MDA-MB-231 [3]): Active
Activity_index (MDA-MB-231 [4]): 22
viability at 50 µM (Caco-2 [5]): 3%
Activity (HaCaT [6]): 20%
Ratio IC50 [7]: >6.6
Activity (NCI-H727 [8]): Active
Activity (MCF7): Active
Activity_index (NCI-H727 [9]): 1.1
IC50 (HCT-116 [10]): 6.2 µM
viability at 50 µM (MDA-MB-231 [11]): 12%
IC50 (HaCaT [12]): 7.6 µM
Activity (HaCaT [13]): 0.4%
Ratio IC50 [14]: >9.1
Ratio IC50 [15]: >4.7
Activity (PC-3 [16]): Active
Activity (PC-3 [17]): Active
Ratio IC50 [18]: >7.8
IC50 (NCI-H727 [19]): 5.5 µM
IC50 (PC-3 [20]): 5.5 µM
Activity_index (Huh-7 [21]): 4.7
viability at 50 µM (Huh-7 [22]): 8%
Ratio IC50 [23]: >9.1
Activity_index (PC-3 [24]): 0.4
Activity (MDA-MB-231 [25]): Active
IC50 (Huh-7 [26]): 14.6 µM
Activity_index (Huh-7 [27]): 1.3
Activity (Huh-7 [28]): 44%
viability at 50 µM (PC-3 [29]): 26%
Activity (HCT-116 [30]): Active
Activity (Caco-2 [31]): Active
Ratio IC50 [32]: >9.1
Activity (Caco-2 [33]): 13%
Activity (MDA-MB-231 [34]): Active
viability at 50 µM (HCT-116 [35]): 1%
IC50 (Fibroblast): > 20 µM
Activity_index (PC-3 [36]): 14.6
Ratio IC50 [37]: >3.4
Activity (HCT-116 [38]): Active
IC50 (Caco-2 [39]): 5.5 µM

Reference: ChEMBL document CHEMBL3992552, “Mechanisms of action and structure-activity relationships of cytotoxic flavokawain derivatives” (Bioorg Med Chem, 2017)
